In PubChem BioAssay AID602427 (Sanford-Burnham Center for Chemical Genomics, 2012):
Active and inactive are the calls of the source.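 How the source made its calls: active means EC50 at or below 20 micromolar; inactive means the rest.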

Molecular target: Neurotensin receptor type 1 (Homo sapiens) (UniProt P30989)
Experiment: NTSR1 activation via enzyme-fragment complementation – cell-based, luminescence, CHO-K1 NTSR1 PathHunter, orthogonal assay for NTR1 agonist project, SAR follow-up (AID 602427);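 further: agonist potency for NTR1 activation where higher luminescence means more arrestin recruitment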
Settings: CHO-K1 NTSR1 PathHunter beta-arrestin

Chain of Neurotensin receptor type 1 (Homo sapiens) (P30989 whole entry, looked up, the tested form may be a part): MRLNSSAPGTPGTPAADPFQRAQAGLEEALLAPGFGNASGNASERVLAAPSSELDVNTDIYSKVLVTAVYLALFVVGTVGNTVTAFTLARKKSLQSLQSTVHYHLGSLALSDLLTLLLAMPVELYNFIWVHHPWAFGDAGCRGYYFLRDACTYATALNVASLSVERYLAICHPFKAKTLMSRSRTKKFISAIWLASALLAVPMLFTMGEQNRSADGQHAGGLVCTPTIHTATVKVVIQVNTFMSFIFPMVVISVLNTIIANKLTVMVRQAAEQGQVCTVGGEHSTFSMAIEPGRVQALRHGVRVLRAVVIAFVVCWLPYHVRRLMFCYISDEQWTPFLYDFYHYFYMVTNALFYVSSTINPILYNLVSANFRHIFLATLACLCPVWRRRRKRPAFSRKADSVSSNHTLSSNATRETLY

Compound	EC50
COc1ccccc1-c1cc(C(=O)O)nn1-c1ccnc2cc(Cl)ccc12	> 33 µM (inactive)
COc1ccc2c(c1)c1nnc(-c3ccc(F)cc3)c-1cn2Cc1ccc(C)cc1	> 33 µM (inactive)
Cc1ccc(-c2nnc3c4cc5c(cc4n(Cc4ccc(F)cc4)cc2-3)OCO5)cc1C	> 33 µM (inactive)
Clc1cccc(-n2ncc3c(N4CCN(c5ccccc5)CC4)ncnc32)c1	> 33 µM (inactive)
COc1cc2c3nnc(-c4ccc(C)c(C)c4)c-3cn(Cc3ccc(C)cc3)c2cc1OC	inactive
Cc1ccc(-n2ncc3c(N4CCN(c5ccccc5)CC4)ncnc32)c(C)c1	> 33 µM (inactive)
COc1ccc(C(=O)c2cn(Cc3ccc(C)cc3)c3ccccc3c2=O)cc1	> 33 µM (inactive)
COc1ccc(Cn2c(SCc3cc(C)ccc3C)nc3cc(OC)c(OC)cc3c2=N)cc1Cl	> 33 µM (inactive)
COc1cccc(OC)c1-c1cc(C(=O)NC2(C(=O)O)C3CC4CC(C3)CC2C4)nn1-c1ccnc2cc(Cl)ccc12 (stereo not drawn)	> 33 µM (inactive)
COc1ccc(-c2nnc3c4cc(OC)c(OC)cc4n(Cc4ccccc4)cc2-3)cc1	> 33 µM (inactive)
O=C(c1ccccc1)c1cn(Cc2ccccc2)c2ccccc2c1=O	> 33 µM (inactive)
COc1ccc2c3nnc(-c4ccc(C)cc4)c-3cn(Cc3ccc(C)cc3)c2c1	> 33 µM (inactive)
COc1cc2nc(SCc3ccncc3)n(Cc3cccc(C(F)(F)F)c3)c(=N)c2cc1OC	> 33 µM (inactive)
COc1cc2c3nnc(-c4ccc(F)cc4)c-3cn(CCc3ccccc3)c2cc1OC	> 33 µM (inactive)
COc1cc2ncc3c(-c4ccc(F)cc4)n[nH]c3c2cc1OC	> 33 µM (inactive)
Cc1ccc(-n2ncc3c(N4CCN(c5ccccc5Cl)CC4)ncnc32)c(C)c1	> 33 µM (inactive)
CN(C)S(=O)(=O)c1ccc(-c2csc(N/N=C/c3ccco3)n2)cc1	> 33 µM (inactive)
COc1cc2nc(-c3ccccc3)nc(N3CCN(c4ccc(Cl)cc4)CC3)c2cc1OC	> 33 µM (inactive)
COc1ccc(/C=N/Nc2nc(-c3ccc(S(=O)(=O)N(C)C)cc3)cs2)cc1	> 33 µM (inactive)
COc1cc2c(=O)c(C(=O)c3ccc(F)cc3)cn(Cc3ccncc3)c2cc1OC	> 33 µM (inactive)

Compound	EC50
COc1cc2nc(Cc3ccccc3)nc(N3CCN(c4ccccc4OC)CC3)c2cc1OC	> 33 µM (inactive)
Cc1cc(Cl)ccc1-n1ncc2c(N3CCN(c4ccccc4)CC3)ncnc21	> 33 µM (inactive)
COc1ccc(-c2nnc3c4ccccc4n(CC4CC4)cc2-3)cc1	> 33 µM (inactive)
COc1cc2c(=O)c(C(=O)c3ccc(F)cc3)cn(CCc3ccccc3)c2cc1OC	> 33 µM (inactive)
COc1cc2c3nnc(-c4ccc(F)cc4)c-3cn(Cc3ccc(F)cc3)c2cc1OC	> 33 µM (inactive)
CCOC(=O)c1cc(-c2c(OC)cccc2OC)n(-c2ccnc3cc(Cl)ccc23)n1	> 33 µM (inactive)
COc1cc2nc(C3CCCC3)nc(N3CCN(c4ccccc4OC)CC3)c2cc1OC	inactive
CCOc1ccc(-c2nnc3c4cc(OC)c(OC)cc4n(Cc4ccccc4)cc2-3)cc1	inactive
COc1cccc(OC)c1-c1nc(C(=O)N[C@@H](CC(C)C)C(=O)O)cn1-c1ccnc2ccccc12	18.2 µM
COc1cc2c3nnc(-c4ccc(F)cc4)c-3cn(Cc3ccccn3)c2cc1OC	> 33 µM (inactive)
Cc1ccc(-c2nnc3c4cc5c(cc4n(Cc4ccccc4)cc2-3)OCO5)cc1C	> 33 µM (inactive)
CCn1cc2c(-c3ccc(F)cc3)nnc-2c2cc(OC)c(OC)cc21	> 33 µM (inactive)
COc1cc2nc(C3CCC3)nc(N3CCN(c4ccccc4C)CC3)c2cc1OC	> 33 µM (inactive)
COc1cc2c3nnc(-c4ccc(F)cc4)c-3cn(CC3CC3)c2cc1OC	> 33 µM (inactive)
COc1cc2nc(-c3ccccc3)nc(N3CCN(c4ccc(F)cc4)CC3)c2cc1OC	> 33 µM (inactive)
COc1ccc(-c2nnc3c4ccccc4n(Cc4ccc(Cl)cc4)cc2-3)cc1	> 33 µM (inactive)
COc1ccccc1N1CCN(c2ncnc3c2cnn3-c2ccc(C)cc2C)CC1	inactive
Clc1ccccc1-n1ncc2c(N3CCN(c4ccccc4)CC3)ncnc21	> 33 µM (inactive)
COc1cc2c3nnc(-c4ccccc4)c-3cn(Cc3ccc(F)cc3)c2cc1OC	> 33 µM (inactive)
Cc1ccc(-n2ncc3c(N4CCN(c5cc(C)ccc5C)CC4)ncnc32)c(C)c1	> 33 µM (inactive)

Next, values leading:

EC50	Compound
inactive	COc1cc2c3nnc(-c4ccc(C)cc4)c-3cn(Cc3ccc(F)cc3)c2cc1OC
> 33 µM (inactive)	Cc1ccc(-c2nnc3c4cc5c(cc4n(Cc4ccc(F)cc4)cc2-3)OCO5)cc1
inactive	COc1ccc2nc(C3CCC3)nc(N3CCN(c4ccccc4OC)CC3)c2c1
> 33 µM (inactive)	COc1cccc(N2CCN(c3nc(C4CCC4)nc4cc(OC)c(OC)cc34)CC2)c1
> 33 µM (inactive)	CC(C)C[C@H](NC(=O)c1cn(-c2ccnc3ccccc23)c(-c2ccccc2)n1)C(=O)O
> 33 µM (inactive)	Cc1ccc(Cn2cc3c(-c4ccc(F)cc4)nnc-3c3cc4c(cc32)OCO4)cc1
> 33 µM (inactive)	COc1ccc(Cn2c(SCc3ccc(C)cc3)nc3cc(OC)c(OC)cc3c2=N)cc1Cl
> 33 µM (inactive)	COc1ccccc1-c1nc(C(=O)N[C@@H](CC(C)C)C(=O)O)cn1-c1ccnc2cc(Cl)ccc12
> 33 µM (inactive)	Fc1ccc(Cn2cc3c(-c4ccc(Cl)cc4)nnc-3c3cc4c(cc32)OCO4)cc1
> 33 µM (inactive)	CN(C)S(=O)(=O)c1ccc(-c2csc(N/N=C/c3cccc(Cl)c3)n2)cc1
> 33 µM (inactive)	COc1ccc2c(N3CCN(c4ccccc4OC)CC3)nc(C3CCC3)nc2c1
> 33 µM (inactive)	COc1cc2nc(C3CCC3)nc(N3CCN(c4ccccc4)CC3)c2cc1OC
> 33 µM (inactive)	CCn1cc2c(-c3ccc(OC)cc3)nnc-2c2ccccc21
> 33 µM (inactive)	COc1ccc2c3nnc(-c4ccc(C)cc4)c-3cn(Cc3ccccc3)c2c1
> 33 µM (inactive)	COc1ccc(C(=O)c2cn(Cc3ccc(F)cc3)c3ccccc3c2=O)cc1
> 33 µM (inactive)	CC(C)C[C@H](NC(=O)c1cn(-c2ccnc3cc(Cl)ccc23)c2ccccc12)C(=O)O
> 33 µM (inactive)	COc1cc2nc(-c3ccccc3)nc(N3CCN(c4ccccc4F)CC3)c2cc1OC
> 33 µM (inactive)	COc1ccccc1N1CCN(c2nc(C3CCC3)nc3cc4c(cc23)OCO4)CC1
> 33 µM (inactive)	COc1ccc(/C=N/Nc2nc(-c3ccc(S(=O)(=O)N(C)C)cc3)cs2)cc1OC
> 33 µM (inactive)	COc1ccc(-c2nnc3c4ccccc4n(Cc4ccc(F)cc4)cc2-3)cc1
> 33 µM (inactive)	O=S(=O)(c1ccc(-c2csc(N/N=C/c3ccco3)n2)cc1)N1CCOCC1
> 33 µM (inactive)	Fc1ccc(-n2ncc3c(N4CCN(c5ccccc5)CC4)ncnc32)cc1
> 33 µM (inactive)	Cc1ccc(-n2ncc3c(N4CCN(c5cccc(Cl)c5)CC4)ncnc32)c(C)c1
> 33 µM (inactive)	CCOc1ccc(-c2nnc3c4cc(OC)c(OC)cc4n(Cc4ccc(C)cc4)cc2-3)cc1

EC50	Compound
> 33 µM (inactive)	COc1cc2c(=O)c(C(=O)c3ccc(F)cc3)cn(Cc3ccc(N(C)C)cc3)c2cc1OC
> 33 µM (inactive)	COc1ccc(C(=O)c2cn(Cc3ccc(OC(F)(F)F)cc3)c3ccccc3c2=O)cc1
> 33 µM (inactive)	CCCSc1nc2cc(OC)c(OC)cc2c(=N)n1Cc1cccc(C(F)(F)F)c1
> 33 µM (inactive)	COc1ccc(Cn2cc(C(=O)c3ccc(F)cc3)c(=O)c3cc(OC)c(OC)cc32)cc1
> 33 µM (inactive)	CC(C)C[C@H](NC(=O)c1cn(-c2ccnc3cc(Cl)ccc23)c(-c2c(Cl)cccc2Cl)n1)C(=O)O
> 33 µM (inactive)	Cc1ccc(-n2ncc3c(N4CCN(c5ccccc5)CC4)ncnc32)cc1C
> 33 µM (inactive)	COc1ccccc1N1CCN(c2nc(C3CCC3)nc3ccccc23)CC1
> 33 µM (inactive)	COc1ccccc1-c1cc(C(=O)N[C@@H](CC(C)C)C(=O)OC(C)(C)C)nn1-c1ccnc2cc(Cl)ccc12
> 33 µM (inactive)	Cc1ccc(Cn2cc3c(-c4ccc(Cl)cc4)nnc-3c3cc4c(cc32)OCO4)cc1
6.1 µM	COc1cccc(OC)c1-c1nc(C(=O)N[C@@H](CC(C)C)C(=O)O)cn1-c1ccnc2cc(Cl)ccc12
> 33 µM (inactive)	COc1ccc2c(c1)c(=O)c(C(=O)c1ccc(F)cc1)cn2Cc1ccc(F)cc1
> 33 µM (inactive)	COc1cc2c(=O)c(C(=O)c3ccc(F)cc3)cn(Cc3ccc(OC(F)(F)F)cc3)c2cc1OC
> 33 µM (inactive)	COc1ccc(C(=O)c2cn(CC3CC3)c3ccccc3c2=O)cc1
> 33 µM (inactive)	Fc1ccc(-c2nnc3c4cc5c(cc4n(Cc4ccccc4)cc2-3)OCO5)cc1
> 33 µM (inactive)	COc1cc2c3nnc(-c4ccccc4)c-3cn(Cc3ccc(C)cc3)c2cc1OC
> 33 µM (inactive)	COc1ccc(-c2nnc3c4ccccc4n(CCc4ccccc4)cc2-3)cc1
> 33 µM (inactive)	COc1ccc(N2CCN(c3nc(C4CCC4)nc4cc(OC)c(OC)cc34)CC2)cc1
> 33 µM (inactive)	Cc1ccc(/C=N/Nc2nc(-c3ccc(S(=O)(=O)N(C)C)cc3)cs2)cc1
> 33 µM (inactive)	COc1cc2c3nnc(-c4ccc(F)cc4)c-3cn(Cc3ccc(OC(F)(F)F)cc3)c2cc1OC
> 33 µM (inactive)	Cc1ccc(-n2ncc3c(N4CCN(c5ccc([N+](=O)[O-])cc5)CC4)ncnc32)c(C)c1
> 33 µM (inactive)	COc1cc2c3nnc(-c4ccc(F)cc4)c-3cn(Cc3cccnc3)c2cc1OC
> 33 µM (inactive)	COc1cc2c3nnc(-c4ccc(F)cc4)c-3cn(Cc3ccncc3)c2cc1OC
> 33 µM (inactive)	CCOc1cc2c(N3CCN(c4ccccc4OC)CC3)nc(-c3ccc(OC)c(OC)c3)nc2cc1OC
> 33 µM (inactive)	COc1cccc(OC)c1-c1nc(C(=O)O)cn1-c1ccncc1
